How the values were obtained:
Lucilia cuprina larvae = assay: Lucilia cuprina test (LUCICU), Example 3; format: in vivo; conditions: application rate 20 ppm, treated horsemeat, after 2 days
Procedure: Lucilia cuprina Test (LUCICU) • Solvent: dimethyl sulphoxide To prepare an active ingredient formulation, 10 mg of active ingredient are mixed with 0.5 ml of dimethyl sulphoxide, and the concentrate is diluted with water to the desired concentration. Vessels containing horsemeat which has been treated with the active ingredient formulation of the desired concentration are populated with Lucilia cuprina larvae. After 2 days, the kill rate in % is determined. 100% means that all larvae were killed; 0% means that no larvae were killed.

Boophilus microplus [1] = assay: Boophilus microplus test (BOOPMI injection), Example 1; format: in vivo; conditions: application rate 20 μg/animal, injected into abdomen, after 7 days
Procedure: Boophilus microplus Test (BOOPMI Injection) • Solvent: dimethyl sulphoxide To prepare an active ingredient formulation, 10 mg of active ingredient are mixed with 0.5 ml of solvent and the concentrate is diluted with water to the desired concentration. The active ingredient solution was injected into the abdomen (Boophilus microplus), and the animals were transferred to dishes and stored in a climate-controlled room. The efficacy was assessed by the number of fertile eggs laid. After 7 days, the efficacy in % is determined. 100% means that no tick laid fertile eggs.

Boophilus microplus [2] = assay: Boophilus microplus test (BOOPMI injection), Example 11; format: in vivo; conditions: application rate 20 μg/animal, injected into abdomen, after 7 days; for pest or weed control at 0.02 mg: Rhipicephalus microplus, 168 h, read-out: efficacy in % (fertile eggs laid)
Procedure, shortened: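 Adult ticks injected in the abdomen with compound diluted in DMSO, then held in a climate-controlled room. Efficacy in % determined after 7 days from fertile eggs laid; 100% means no tick laid fertile eggs.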

Ctenocephalides felis = Ctenocephalides felis oral (CTECFE), Example 2; format: in vivo; conditions: application rate 20 ppm in citrated cow's blood, after 2 days
Procedure: Ctenocephalides felis Oral ([…]) • Solvent: 1 part by weight of dimethyl sulphoxide For the purpose of preparing an active ingredient formulation, 10 mg of active ingredient are mixed with 0.5 ml of dimethyl sulphoxide. A portion of the concentrate was diluted with citrated cow's blood and the desired concentration was prepared. 20 unfed adult fleas (Ctenocephalides felis) are placed into a chamber sealed at the top and bottom with gauze. A metal cylinder with its lower end sealed with Parafilm is placed onto the chamber. The cylinder contains the blood-active ingredient preparation, which can be consumed by the fleas through the Parafilm membrane. After 2 days, the kill rate in % is determined. 100% means that all fleas were killed; 0% means that no fleas were killed.

[3] = logP by HPLC on reverse-phase column (EEC Directive 79/831 Annex V.A8); format: physicochemical; conditions: for logP: HPLC-MS; for chromatographic logP: reverse-phase C18 HPLC column, pH 2.7, HPLC, C18 reverse phase, 43° C., acidic range pH 2.7, calibration with alkan-2-ones
Procedure: The logP values reported in the above Tables and Preparation Examples were determined according to EEC Directive 79/831 Annex V.A8 by HPLC (High Performance Liquid Chromatography) on a reverse-phase column (C18). Temperature 43° C.

[4] = test system: mustard beetle (Phaedon cochleariae); assay: Phaedon test (PHAECO spray treatment), Example 7; format: in vivo; conditions: application rate 20 g/ha, china cabbage leaf discs sprayed, after 7 days
Procedure, shortened: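 Spray formulation (acetone/DMF with alkylaryl polyglycol ether, diluted in emulsifier-containing water) applied to Chinese cabbage leaf discs, which were dried and then stocked with mustard beetle larvae. Efficacy scored at 7 days as % larvae killed (100% all, 0% none).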

[5] = test system: green peach aphid (Myzus persicae); assay: Myzus test (MYZUPE spray treatment), Example 17; format: in vivo; conditions: china cabbage leaf discs sprayed, after 6 days
Procedure, shortened: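 Chinese cabbage leaf discs infested with all aphid stages were sprayed with compound formulated in acetone/dimethylformamide plus alkylaryl polyglycol ether emulsifier, diluted in emulsifier-containing water. Mortality read after 6 days as % efficacy (100% all killed, 0% none killed).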

Musca domestica adults = assay: Musca domestica test (MUSCDO), Example 14; format: in vivo; conditions: application rate 100 ppm, treated sponge, after 2 days
Procedure: Musca domestica Test (MUSCDO) • Solvent: dimethyl sulphoxide To prepare an appropriate active ingredient formulation, 10 mg of active ingredient are mixed with 0.5 ml of dimethyl sulphoxide, and the concentrate is diluted with water to the desired concentration. Vessels containing a sponge which has been treated with the active ingredient formulation of the desired concentration are populated with Musca domestica adults. After 2 days, the kill rate in % is determined. 100% means that all flies were killed; 0% means that no flies were killed.

[6] = test system: red spider mite (Tetranychus urticae); assay: Tetranychus test, OP-resistant (TETRUR spray treatment), Example 8; format: in vivo; conditions: application rate 20 g/ha, common bean leaf discs sprayed, after 6 days
Procedure, shortened: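 Bean (Phaseolus vulgaris) leaf discs carrying all stages of OP-resistant Tetranychus urticae sprayed with compound in acetone/DMF with emulsifier, diluted in water to the test concentration. Mortality scored after 6 days as % efficacy (100% = all mites killed).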

[7] = test system: mustard beetle (Phaedon cochleariae); assay: Phaedon test (PHAECO spray treatment), Example 16; format: in vivo; conditions: Phaedon cochleariae, foliar, china cabbage leaf discs sprayed, after the desired time, read-out: efficacy in %; for pest or weed control at 500 g/ha: application rate 500 g/ha; for pest or weed control at 100 g/ha: application rate 100 g/ha
Procedure: Phaedon Test (PHAECO Spray Treatment)
(§1) • Solvent: 78.0 parts by weight of acetone • 1.5 parts by weight of dimethylformamide • Emulsifier: 0.5 part by weight of alkylaryl polyglycol ether
To prepare an appropriate active ingredient formulation, 1 part by weight of active ingredient is mixed with the stated amounts of solvent and emulsifier, and the concentrate is diluted with emulsifier-containing water to the desired concentration. […]
After the desired time, the efficacy in % is determined. 100% means that all beetle larvae were killed; 0% means that no beetle larvae were killed.

[8] = test system: armyworm (Spodoptera frugiperda); assay: Spodoptera frugiperda test (SPODFR spray treatment), Example 15; format: in vivo; conditions: Spodoptera frugiperda, foliar, 168 h, maize leaf discs sprayed, after 7 days, read-out: efficacy in %; for pest or weed control at 500 g/ha: application rate 500 g/ha; for pest or weed control at 100 g/ha: application rate 100 g/ha
Procedure, shortened: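 Maize leaf discs sprayed with active ingredient in acetone/DMF with alkylaryl polyglycol ether emulsifier, diluted in water, then populated with caterpillars after drying. Efficacy in % after 7 days: 100% all caterpillars killed, 0% none.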

[9] = test system: red spider mite (Tetranychus urticae); assay: Tetranychus test; OP-resistant (TETRUR spray treatment), Example 18; format: in vivo; conditions: Tetranychus urticae, foliar, 144 h, common bean leaf discs sprayed, after 6 days, read-out: efficacy in %; for pest or weed control at 500 g/ha: application rate 500 g/ha; for pest or weed control at 100 g/ha: application rate 100 g/ha
Procedure: Tetranychus Test; OP-Resistant (TETRUR Spray Treatment)
as §1
To prepare an appropriate active ingredient formulation, 1 part by weight of active ingredient is mixed with the stated amounts of solvent and emulsifier, and the concentrate is diluted with emulsifier-containing water to the desired concentration. Leaf discs from the common bean (Phaseolus vulgaris) infested by all stages of the red spider mite (Tetranychus urticae) are sprayed with an active ingredient formulation of the desired concentration.
After 6 days, the efficacy in % is determined. 100% means that all spider mites were killed; 0% means that no spider mites were killed.

SMILES | kill rate in % (efficacy) (Lucilia cuprina larvae) | efficacy in % (fertile eggs laid) (Boophilus microplus [1]) | efficacy in % (fertile eggs laid) (Boophilus microplus [2]) | kill rate in % (efficacy) (Ctenocephalides felis) | logP [3] | efficacy in % [4] | chromatographic logP [3] | pest or weed control at 100 g/ha [7] | pest or weed control at 100 g/ha [9] | other results
Cc1cc(/C=C/C(=O)NC(c2cccc(C(F)(F)F)c2)C(F)(F)F)ccc1C(=O)NCc1ccccn1 (stereo not drawn) [Ia-22] | 90% | 100% | 100% | 100% | HPLC-MS: logP = 2.65; mass | 100% |  |  |  | efficacy in % ([5]; application rate 500 g/ha): 100%
O=C(/C=C/c1ccc(C(=O)NC2CC2)c(C(F)(F)F)c1)NC(c1cc(Cl)cc(C(F)(F)F)c1)C(F)(F)F (stereo not drawn) [Ia-40, 4-[(1E,Z)-3-({1-[3-Chloro-5-(trifluoromethyl)phenyl]-2,2,2-trifluoroethyl}amino)-3-oxoprop-1-en-1-yl]-N-cyclopropyl-2-(trifluoromethyl)benzamide] | 90% | 100% |  | 100% |  |  | 3.68 |  |  | kill rate in % (efficacy) (Musca domestica adults): 85%; pest or weed control at 0.02 mg (Boophilus microplus [2]): 100%
O=C(/C=C/c1ccc(C(=O)NC2CC2)c(Br)c1)NC(c1cccc(C(F)(F)F)c1)C(F)(F)F (stereo not drawn) [Ia-42] | 100% | 100% | 100% | 100% | HPLC-MS: logP = 3.23; mass |  |  |  |  | 
O=C(/C=C/c1ccc(C(=O)NC2CC2)c(Cl)c1)NC(c1cccc(C(F)(F)F)c1)C(F)(F)F (stereo not drawn) [Ia-43] | 100% | 100% | 100% | 100% | HPLC-MS: logP = 3.22; mass | 100% |  |  |  | efficacy in % ([5]; application rate 500 g/ha): 80%
O=C(/C=C/c1ccc(C(=O)NCC(F)(F)F)c(Br)c1)NC(c1cccc(C(F)(F)F)c1)C(F)(F)F (stereo not drawn) [Ia-45] | 100% | 100% | 100% | 98% | HPLC-MS: logP = 3.60; mass |  |  |  |  | kill rate in % (efficacy) (Musca domestica adults): 100%
CN(C(=O)c1ccc(/C=C/C(=O)NC(c2cccc(C(F)(F)F)c2)C(F)(F)F)cc1C(F)(F)F)C1CC1 (stereo not drawn) [Ia-60] | 90% | 100% | 100% | 100% | HPLC-MS: logP = 3.62; mass | 100% |  |  |  | kill rate in % (efficacy) (Musca domestica adults): 95%; efficacy in % [6]: 90%
O=C(/C=C/c1ccc(C(=O)NC2CC2)c(C(F)(F)F)c1)NC(c1cc(F)cc(C(F)(F)F)c1)C(F)(F)F (stereo not drawn) [Ia-229, N-[α,3-Bis(trifluoromethyl)-5-fluorobenzenemethane]-3-trifluoromethyl-4-(N-cyclopropylcarbamoyl)cinnamide] |  |  |  |  |  |  | 3.59 |  |  | pest or weed control at 500 g/ha [7]: 100%; pest or weed control at 500 g/ha [8]: 100%; pest or weed control at 500 g/ha [9]: 100%
CC(C)C(=O)NCc1ccc(/C=C/C(=O)NC(c2cccc(C(F)(F)F)c2)C(F)(F)F)cc1C(F)(F)F (stereo not drawn) [Ia-266, (2E)-3-{4-[(Isobutyrylamino)methyl]-3-(trifluoromethyl)phenyl}-N-{2,2,2-trifluoro-1-[3-(trifluoromethyl)phenyl]ethyl}acrylamide] |  |  |  |  |  |  | 3.78 | 100% | 90% | pest or weed control at 100 g/ha [8]: 100%
O=C(NC(c1cccc(C(F)(F)F)c1)C(F)(F)F)c1cc2cc(C(=O)NC3CC3)c(Cl)cc2[nH]1 (stereo not drawn) [Ic-24, 6-Chloro-N^5-cyclopropyl-N^2-{2,2,2-trifluoro-1-[3-(trifluoromethyl)phenyl]ethyl}-1H-indole-2,5-dicarboxamide] |  |  |  |  |  | 100% | 3.08 |  |  | pest or weed control at 500 g/ha [7]: 100%; pest or weed control at 500 g/ha [8]: 100%; pest or weed control at 500 g/ha [9]: 100%; pest or weed control at 0.02 mg (Boophilus microplus [2]): 100%
C=CCNC(=O)c1cc2cc(C(=O)NC(c3cccc(C(F)(F)F)c3)C(F)(F)F)n(C)c2cc1Cl (stereo not drawn) [Ic-32, N^5-Allyl-6-chloro-1-methyl-N^2-{2,2,2-trifluoro-1-[3-(trifluoromethyl)phenyl]ethyl}-1H-indole-2,5-dicarboxamide] |  |  |  |  |  |  | 3.68 |  |  | pest or weed control at 500 g/ha [7]: 100%; pest or weed control at 500 g/ha [8]: 100%; pest or weed control at 500 g/ha [9]: 100%
CC(=O)NC1CCc2cc(/C=C/C(=O)NC(c3cccc(C(F)(F)F)c3)C(F)(F)F)ccc21 (stereo not drawn) [Ie-1, (2E)-3-(1-Acetamido-2,3-dihydro-1H-inden-5-yl)-N-{2,2,2-trifluoro-1-[3-(trifluoromethyl)-phenyl]ethyl}acrylamide] |  |  |  |  |  |  | 3 | 100% | 90% | pest or weed control at 100 g/ha [8]: 100%
O=C(/C=C/c1cc(C(F)(F)F)c(C(=O)NC2CC2)cn1)NC(c1cccc(C(F)(F)F)c1)C(F)(F)F (stereo not drawn) [If-2, N-Cyclopropyl-6-[(1E)-3-oxo-3-({2,2,2-trifluoro-1-[3-(trifluoromethyl)phenyl]ethyl}amino)-prop-1-en-1-yl]-4-(trifluoromethyl)nicotinamide] |  |  |  |  |  |  | 3.27 | 100% | 100% | pest or weed control at 100 g/ha [8]: 83%; efficacy in % ([5]; application rate 100 g/ha): 100%
O=C(/C=C\c1ccc(C(=O)NC2CC2)c(Cl)c1)NC(c1cccc(C(F)(F)F)c1)C(F)(F)F (stereo not drawn) [Ig-1, 2-Chloro-N-cyclopropyl-4-[(1Z)-3-oxo-3-({2,2,2-trifluoro-1-[3-(trifluoromethyl)phenyl]ethyl}-amino)prop-1-en-1-yl]benzamide] |  |  |  |  |  |  | 3.06 | 100% | 80% | 
